Molecules are shown by their SMILES.

The source of these data is patent US6875578B2, “System for cell-based screening” (priority 1997, dated 2005).

The test system of assay [1] is mitochondrial potential within LLCPK cells. Put plainly: JC-1 mitochondrial potential measurement, LLCPK cells. It is filed as cell-based, pig. The conditions noted are these: 10 μM valinomycin, within seconds of treatment. The text has this: (§1) We have utilized a positively charged cyanine dye, JC-1 (Molecular Probes, Eugene, Oreg.), which diffuses into the cell and readily partitions into the mitochondrial membrane, for measurement of mitochondrial potential. The photophysics of JC-1 are such that when the probe partitions into the mitochondrial membrane and it experiences an electrical potential >140 mV, the probe aggregates and its spectral response is shifted to the red. At membrane potential values <140 mV, JC-1 is primarily monomeric and its spectral response is shifted toward the blue. Therefore, the ratio of two emission wavelengths (645 nm and 530 nm) of JC-1 partitioned into mitochondria provides a sensitive and continuous measure of mitochondrial membrane potential.
(§2) • 1. […] (2 times, 150 μl/well), the toxins were added if required, and the entire plate was scanned in a plate reader. The JC-1 monomer was measured optimally with a 485 nm excitation/530 nm emission wavelength filter set, and the aggregates were best measured with a 590 nm excitation/645 nm emission wavelength set. […]
(§3) The mitochondrial potential within several types of living cells, and the effects of toxins on the potential were measured using the fluorescence ratio Em 645 (590)/Em 530 (485) (excitation wavelengths in parentheses). For example, we measured the effect of 10 μM valinomycin on the mitochondrial potential within LLCPK cells (pig epithelia). […]

The test system of assay [2] is mitochondrial potential in hepatocytes. As to the kind of experiment: JC-1 mitochondrial potential measurement, hepatocytes. It counts as cell-based, rat. The following applies: various concentrations, nearly complete within seconds to minutes.
Source text: as §1, §2, §3

The test system of assay [3] is caspase-3. As to the kind of experiment: Caspase-3 biosensor apoptosis assay, MCF-7 cells. It is filed as cell-based. The following applies: MCF-7 cells; 15 h treatment with 100 μM etoposide. The method, then:
For DNA transfection, BHK cells and MCF-7 cells were cultured to 50-70% confluence in 6 well plates containing 3 ml of minimal Eagle's medium (MEM) with 10% fetal calf serum, 1 mM L-glutamine, 50 μg/ml streptomycin, 50 μg/ml penicillin, 0.1 mM non-essential amino acids, 1 mM sodium pyruvate and 10 μg/ml of bovine insulin (for MCF-7 cell only) at 37° C. in a 5% CO2 incubator for about 36 hours. The cells were washed with serum free MEM media and incubated for 5 hours with 1 ml of transfection mixture containing 1 μg of the appropriate plasmid and 4 μg of lipofectimine (BRL) in the serum free MEM media. Subsequently, the transfection medium was removed and replaced with 3 ml of normal culture media. The transfected cells were maintained in growth medium for at least 16 hours before performing selection of the stable cells based on standard molecular biology methods (Ausubel. et al 1995).
For apoptosis assays, the cells (BHK, MCF-7) stably transfected with the appropriate protease biosensor expression vector were plated on tissue culture treated 96-well plates at 50-60% confluence and cultured overnight at 37° C., 5% CO2. Varying concentrations of cis-platin, staurosporine, or paclitaxel in normal culture media were freshly prepared from stock and added to cell culture dishes to replace the old culture media. The cells were then observed with the cell screening system of the present invention at the indicated time points either as live cell experiments or as fixed end-point experiments.
This biosensor is restricted to the cytoplasm by the reactant target sequence. The reactant target sequence is the annexin II cytoskeletal binding domain ([…]) (SEQ ID NO:124) (FIG. 29C) (Eberhard et al. 1997. Mol. Biol. Cell 8:293a). The enzyme recognition site corresponds to two copies of the amino acid sequence DEVD (SEQ ID NO:60) (FIG. 29B), which serves as the recognition site of caspase-3. […]
The biosensor response is measured by quantitating the effective cytoplasm-to-nuclear translocation of the signal (see above). […]

For assay [4], the system named is caspase-3. The conditions noted are these: MCF-7 cells; accompanied by cleavage of PARP; cited from earlier work.

As for `CC(C)[C@@H]1NC(=O)[C@H](C)OC(=O)[C@@H](C(C)C)NC(=O)[C@@H](C(C)C)OC(=O)[C@H](C(C)C)NC(=O)[C@H](C)OC(=O)[C@@H](C(C)C)NC(=O)[C@@H](C(C)C)OC(=O)[C@H](C(C)C)NC(=O)[C@H](C)OC(=O)[C@@H](C(C)C)NC(=O)[C@@H](C(C)C)OC1=O` [Valinomycin], the “reduction in mitochondrial potential (fluorescence ratio Em 645/Em 530 of JC-1)” value in assay [1] is “approximately 50%”. The “changes in mitochondrial potential” value in assay [2] is “sensitive to valinomycin”.

`COc1cc([C@@H]2c3cc4c(cc3[C@@H](O[C@@H]3O[C@@H]5CO[C@@H](C)O[C@H]5[C@H](O)[C@H]3O)[C@H]3COC(=O)[C@H]23)OCO4)cc(OC)c1O` [etoposide]: the “Caspase-3 activity with the caspase biosensor” value in the assay with caspase-3 [3] was “not detected”. In the assay with caspase-3 [4], the “time of peak response in caspase-3 activity after stimulation” value is listed as 6 h.
